{
  "source": "patent US20080293774A1",
  "about": "“Treatment of the Symptoms of Bladder Irritation” (UROGENE, priority 2005, published 2008)",
  "key": {"[1]": {"conditions": "human; cited from earlier work"}, "[2]": {"test_system": "rhythmic reflex contractions of the bladder", "test": "complete bladder-outlet obstruction (isovolumetric) model of overactive bladder in the rat", "format": "in vivo, female Wistar rats", "conditions": "i.v.; for maximum intravesical pressure: all doses tested (HP183 0.3, 1, 3 mg/kg; HP184 1, 3, 10 mg/kg; HP749 1.6, 3.5, 10.5 mg/kg)", "description": "The compounds of Table 1 have been evaluated in a conventional animal model of overactive bladder: the complete bladder-outlet obstruction model in the rat, referred to as “isovolumetric” model (K. Sugaya, Y. Ogawa, O, Nishizawa, W C De Groat, Decrease in intravesical saline volume during isovolumetric cystometry in the rat, Neurourol. Urodyn, 1997, 16:125-132). In this model, rhythmic reflex contractions of the bladder are induced in female Wistar rats in which the urethra has been ligatured.\nThe rats are anaesthetized and implanted with a jugular catheter for the intravenous administration of the compounds. A transurethral catheter is introduced into the bladder, through the bladder dome, so as to allow the infusion of a saline solution and measurement of the intravesical pressure. The urethra is ligatured in order to close off the bladder.\nThe bladder is infused (50 μl/min) via the transurethral catheter with a saline solution until uninhibited rhythmic contractions appear. The infusion is then stopped and the intravesical pressure is measured for a period of 60 min preceding the injection of the study compounds. The compounds to be studied are then injected via the jugular catheter, and the intravesical pressure is recorded for a period of 60 min. The intravenous administration of the compounds during this test limits the metabolization of HP749 and of HP184 to HP748 and HP183, respectively. The animals are sacrificed at the end of the experiment by means of an overdose of pentobarbital. A scheme of the experiment is given below.\nThe data from the experiment are analysed with the ELPHY software (a free version of which is accessible at the following address: http://www.unic.cnrs-gif.fr/software/software.htm). The parameters analysed are as follows: • Maximum intravesical pressure (MP, expressed in mmHg) • Threshold pressure (ThP, expressed in mmHg) compared with the carrier (FIG. 2B)."}, "bladder contractions": {"test_system": "bladder contractions", "conditions": "rats suffering from bladder irritation; cited from earlier work"}, "[3]": {"conditions": "60 min recording, compared with the carrier"}, "[4]": {"conditions": "all doses tested (HP183 0.3, 1, 3 mg/kg; HP184 1, 3, 10 mg/kg), 60 min recording, compared with the carrier"}},
  "data": [
    {"smiles": "CCCN(c1ccncc1)n1ccc2ccccc21", "note": "[HP749, N-propyl-N-(4-pyridinyl)-1H-indol-1-amine]", "values": [
      {"measurement": "metabolite formed by biotransformation", "setting": "[1]", "result": "metabolized in human to compound (I)"},
      {"measurement": "maximum intravesical pressure", "setting": "[2]; [3]", "result": "did not demonstrate any effect"},
      {"measurement": "frequency of rhythmic isovolumetric contractions", "setting": "[2]; highest dose (10.5 mg/kg)", "result": "increasing"},
      {"measurement": "frequency of rhythmic isovolumetric contractions", "setting": "[2]; lowest dose (HP749 1.6 mg/kg)", "result": "decreasing"}
    ]},
    {"smiles": "Cc1cn(Nc2ccncc2F)c2ccccc12", "note": "[HP183, N-(3-fluoro-4-pyridinyl)-3-methyl-1H-indol-1-amine]", "values": [
      {"measurement": "frequency of rhythmic isovolumetric contractions", "setting": "[2]; [4]", "result": "no statistically significant effect"},
      {"measurement": "maximum intravesical pressure", "setting": "[2]; [3]", "result": "no statistically significant effect"}
    ]},
    {"smiles": "CCCN(c1ccncc1F)n1cc(C)c2ccccc21", "note": "[HP184, N-(3-fluoro-4-pyridinyl)-N-propyl-3-methyl-1H-indol-1-amine]", "values": [
      {"measurement": "frequency of rhythmic isovolumetric contractions", "setting": "[2]; [4]", "result": "no statistically significant effect"},
      {"measurement": "maximum intravesical pressure", "setting": "[2]; [3]", "result": "no statistically significant effect"},
      {"measurement": "frequency of bladder contractions related to bladder irritation", "setting": "bladder contractions", "result": "slightly decreasing"}
    ]},
    {"smiles": "c1ccc2c(c1)ccn2Nc1ccncc1", "note": "[HP748, N-(4-pyridinyl)-1H-indol-1-amine]", "values": [
      {"measurement": "frequency of bladder contractions", "setting": "[2]; from the first dose of 0.3 mg/kg, dose-dependent", "result": "considerably and statistically significantly decreased"}
    ]}
  ]
}
